Source: US10189881B2, “MPS peptides and use thereof” (The Regents of the University of California, priority 2013, dated 2019)
“Also recorded” adds a separate entry of the source. Peptide text beside a SMILES is read from it.

Assays:
[1] = test system: CL1-0 cells; assay: MTS cell viability, drug treatment of mock transfected cells; assay type: cell-based, human; details: control mock transfected CL1-0 cells; increasing concentrations, 72 hours
Method: (§1) FIGS. 10A and 10B show implication of phospho-MARCKS levels in drug resistance. (A) Effects of ectopic V5-tagged PSD-mutant or wild type MARCKS expression on CL1-0 cells in response to various drug treatments. (B) Effects of MARCKS shRNA silencing on A549 cells in response to various drug treatments. Western blot analyses were carried out to determine phospho-MARCKS and total MARCKS levels in these stable cells with appropriate antibodies. The cells were subjected to various doses of cisplatin, paclitaxel, erlotinib or dasatinib for treatment, as indicated. After 72 hours of treatment, cell viability was determinate by MTS assays. Data shown as mean±SD. *P<0.05 versus mock (A; n=3); *P<0.05 versus control shRNA (B; n=4).
To determine if the MARCKS phosphorylation step can serve as a therapeutic target, Applicants evaluated whether the status of MARCKS PSD phosphorylation could alter the sensitivity of NSCLC cells to chemotherapeutic agents and tyrosine kinase inhibitors (TKIs). The V5-tagged wild-type and PSD-mutated (S159/163A) MARCKS constructs were generated and transfected into low MARCKS-expressing CL1-0 cells (FIG. 16A) (Chen, C. H. et al. (2013) Oncogene) for establishing stable clones. These stable cell lines were exposed to increasing concentrations of cisplatin, paclitaxel, erlotinib or dasatinib for 72 hours. […] These toxicities were repressed by enforced expression of V5-tagged wild type MARCKS, but not by overexpression of the S159/163A mutant.

[2] = test system: A549 cells; assay: MTS drug sensitivity of MARCKS-knockdown cells; assay type: cell-based, human; details: stable MARCKS-knockdown A549 cells versus control shRNA; 72 hours
Method: as §1
For enforced expression of V5-tagged MARCKS in CL1-0, lung cancer cells were transfected with pcDNA3.1-MARCKS, pcDNA3.1-S159/163A MARCKS or pcDNA3.1 vector using lipofectamine reagent (Invitrogen), according to the manufacturer's protocol. After culturing in medium containing with 400 μg/mL of G418 (Invitrogen) for 2-3 weeks, individual clones were isolated. Clones that expressed the MARCKS cDNA coding region were maintained in medium containing 200 μg/mL of G418 and used for further investigation. Applicants also established a MARCKS-mixed knockdown stable A549 transfectant. […]

[3] = test system: H1975 cells; assay: Subcutaneous H1975 xenograft, peptide treatment; assay type: in vivo, nude mice; details: i.p., 28 mg/kg every three days for 7 injections
Method: FIGS. 14A-14F show suppressive effects of MPS peptide on cancer growth and metastasis in vivo. (A-C) Suppression of tumorigenesis by MPS peptide. Nude mice bearing subcutaneous tumors were treated for 21 days with intraperitoneal injections of PBS, Mut or MPS peptide at the dosage of 28 mg/kg/3 days. Tumor appearance and volumes were measured and data was presented as mean±SD (n=5, A). A representative photo of primary tumors from subcutaneous tissue of nude mice was shown (B, left). The tumor weights were average values from five mice per group and data were shown as mean±SE (B, right). * P<0.05 as compared with PBS group. […] Top, a representative photo of primary tumors from subcutaneous tissue of nude mice. Bottom, tumor weights are average values from six mice per group. Data were shown as mean±SE. *P<0.01 as compared to PBS-treated group. (E) Inhibition of lung cancer metastasis by MPS peptide. Dissociated PC9 cells were orthotopically injected into the left lobe of the mouse lung. […] (F) Quantification of the average pulmonary metastasis nodules from mice with injected cancer cells and treated with […] or MPS peptide as described (*P<0.05 versus PBS).
To determine the anti-cancer effect of the MPS peptide in vivo, H1975 cells were injected subcutaneously into nude mice. […] After treatment for 21 days, the animals were sacrificed to evaluated tumor weights.

[4] = test system: MARCKS phosphorylation (Ser159/163); assay: Western blot of MARCKS phosphorylation in peptide-treated cells; assay type: cell-based, human; details: 100 μM peptide, 24 hours, H1650 or H1975 cells
Method: The levels of MARCKS phosphorylation in chemoresistant cancer cell lines after 24 hours of MPS or mutant (Mut) peptide treatment. Lysates form 100 μM MPS-or Mut peptide-treated H1650 or H1975cells were subjected to immunoblotting. The sequences of MARCKS MPS peptide consisted of amino acids 152 to 176 from the wild-type protein (SEQ ID NO: 9). The sequences of mutated MPS peptide (Mut) (SEQ ID NO: 14) had the replacement of serine residues (S) by aspartate (D) and are unable to be recognized by PKC. The underline represents the PIP2 binding site.
(§2) FIGS. 13A-13G show MPS peptide suppresses cancer cell proliferation and also induces apoptosis in these cells through direct downregulation of MARCKS activation. (A) Determination of MARCKS phosphorylation levels after 24 hours of MPS peptide treatment. Lysates from 1-100 μM MPS peptide-treated H1975 cells were subjected to western blot analysis. (B) Levels of PIP3 in drug resistant cancer cell lines after MPS peptide treatment. Cells were treated with 10, 50 or 100 μM MPS peptide. After 24 hours of treatment, PIP3 lipids were extracted from these cells and analyzed by a PIP3 ELISA kit. *P<0.05 compared with untreated cells. (C) Downregulation of AKT phosphorylation by MPS peptide treatment, but not by Mut peptide. Cells were treated with 100 μM MPS or Mut peptide for 24 hours. Lysates were immunoblotted with the indicated antibodies. (D) Cell viability analysis of six cancer cell lines and human bronchial epithelial cells (HBE1) upon MPS treatment. Cells were incubated with various concentrations of MPS peptide for 72 hours and then subjected to MTS assays. Polylysine served as a peptide control. n=4, *P<0.05 compared with untreated cells (Con). (E) Cells were treated with the indicated concentrations of MPS peptide and colonies were counted after 10 days of treatment using crystal violet staining (F) MPS treatment augments cell death. […] The percentages of apoptotic cells were quantified by flow cytometry (top), and presented as mean±SD of three experiments (bottom). *, P<0.05 versus untreated cells (Con). […]

[5] = test system: H1650 and H1975 cells; details: 0.5 μM erlotinib alone; 48 hours
Method: The combinatorial effect of MPS peptide with erlotinib on cancer cell lines. Two chemoresistant lung cancer cells, H1650 (Left) and H1975 (Right) cells were respectively co-treated with various dosages of erlotinib and 50 μM MPS peptide. After 48 hours, cell viability was determinate by MTS assay. *, P<0.05.
Two erlotinib resistant cell lines, H1975 (left) and H1650 (right), were co-treated with various dosages of erlotinib and 50 μM MPS peptide. After 48 hours, cell viability was determined by MTS assay. *, P<0.05.
Cells were seeded onto 96-well plates at a density of 5-10×10^3 cells per well and cultured for the indicated treatment. Cell viability was evaluated using a MTS assay kit (Promega, Madison, Wis.). Twenty microliters of the combined MTS/PMS solution was added into each well, incubated for 3 hours at 37° C., and the absorbance was measured at 490 nm by using an ELISA reader.

[6] = test system: normal human bronchial epithelial cells; assay: Crystal violet staining of viable normal cells after peptide treatment; assay type: cell-based; details: 50 μM or various concentrations; 72 hours
Method: After 72 hours of peptide treatment, the number of viable cells was visualized by using crystal violet staining. A representative of three independent experiments.
(§3) After 72 hours of peptide treatment, the number of viable cells was visualized by using crystal violet staining. A representative example of three independent experiments is shown. […] Cells were incubated with various concentrations of MPS peptide for 72 hours and then subjected to MTS assays. 200 μM polyamine and aspartates-substituted mutant (Mut) peptide served as peptide controls (n=3).

[7] = test system: cancer cell lines (H1975, HCT116, H1650, CL1-5 and others); assay: MTS cell viability assay, cancer cell lines; assay type: cell-based; details: H1975, HCT116, H1650 and CL1-5 cells; 72 hours; listed as MPS peptide
Method: Top, cells were incubated with various concentrations of MPS peptide for 72 hours and then subjected to a MTS assay for analysis of cell viability. Polyamine served as a peptide control. *, P<0.05 compared with untreated cells. The HBE1 cell line is a normal bronchial epithelial cell line. Bottom, ethnicities of the cancer cell lines used for MTS assay.
as §2, with “(C) Downregulation of AKT phosphorylation by MPS peptide treatment, but not by Mut peptide. Cells were treated with 100 μM MPS or Mut peptide for 24 hours. Lysates were immunoblotted with the indicated antibodies. (D) Cell viability analysis of six cancer cell lines and human bronchial epithelial cells (HBE1) upon MPS treatment. Cells were incubated with various concentrations of MPS peptide for 72 hours and then subjected to MTS assays. Polylysine served as a peptide control. n=4, *P<0.05 compared with untreated cells (Con).” left out

[8] = Tolerability upon systemic administration; assay type: in vivo; details: systemic administration in mice
[9] = test system: lung cancer cells with low phospho-MARCKS levels; assay: MTS cell viability, lung cancer cell lines with low phospho-MARCKS levels; assay type: cell-based, human; details: various concentrations, 72 hours
Method: as §3

Molecule: CC(=O)O[C@H]1C(=O)[C@@]2(C)[C@H]([C@H](OC(=O)c3ccccc3)[C@]3(O)C[C@H](OC(=O)[C@H](O)[C@@H](NC(=O)c4ccccc4)c4ccccc4)C(C)=C1C3(C)C)[C@]1(OC(C)=O)CO[C@@H]1C[C@@H]2O [paclitaxel]
- Cell viability [1]: dose-dependent decrease of cell viability

Molecule: 5′-GAGCGCTTCTCCTTCAAGAA-3′ (expressed or natural sequence) [MARCKS shRNA-c, common MARCKS-specific short hairpin RNA]
- Sensitivity to cisplatin, paclitaxel, erlotinib, dasatinib [2]: enhanced sensitivity to these drugs

Molecule: KKKKKRFDFKKDFKLDGFDFKKNKK [Mut, aspartates-substituted mutant MPS peptide used as control]
- Tumor size [3]: continuous growth
- Suppression of p-MARCKS [4]: no suppression
- Suppression of p-MARCKS ([4]; listed as Mut peptide): not in Mut peptide-treated cells

Molecule: C#Cc1cccc(Nc2ncnc3cc(OCCOC)c(OCCOC)cc23)c1 [erlotinib]
- Cell viability compared to untreated cells [5]: no significant decrease in cell viability
- Cell viability [1]: dose-dependent decrease of cell viability

Molecule: CC(C)C[C@H](NC(=O)[C@H](CCCCN)NC(=O)[C@H](Cc1ccccc1)NC(=O)[C@H](CO)NC(=O)[C@H](CCCCN)NC(=O)[C@H](CCCCN)NC(=O)[C@H](Cc1ccccc1)NC(=O)[C@H](CO)NC(=O)[C@H](Cc1ccccc1)NC(=O)[C@H](CCCNC(=N)N)NC(=O)[C@H](CCCCN)NC(=O)[C@H](CCCCN)NC(=O)[C@H](CCCCN)NC(=O)[C@H](CCCCN)NC(=O)[C@@H](N)CCCCN)C(=O)N[C@@H](CO)C(=O)NCC(=O)N[C@@H](Cc1ccccc1)C(=O)N[C@@H](CO)C(=O)N[C@@H](Cc1ccccc1)C(=O)N[C@@H](CCCCN)C(=O)N[C@@H](CCCCN)C(=O)N[C@@H](CC(N)=O)C(=O)N[C@@H](CCCCN)C(=O)N[C@@H](CCCCN)C(=O)O [MPS] (H-KKKKKRFSFKKSFKLSGFSFKKNKK-OH)
- Cytotoxicity in normal human bronchial epithelial cells [6]: did not observe any cytotoxicity
- Cytotoxic / anti-proliferative effect on TKIs resistant cancer cells [7]: cytotoxicity effect of MPS peptide is obvious; also recorded: obvious anti-proliferative effect
- Tolerability [8]: well tolerated upon systemic administration in mice
- Cytotoxicity in lung cancer cells with low phospho-MARCKS levels [9]: did not observe any cytotoxicity

Molecule: N.N.[Cl][Pt][Cl] [cisplatin]
- Cell viability [1]: dose-dependent decrease of cell viability
